What all share (type): cell-based
Assay [1] has as its target T1, Toll-like receptor 2 (Homo sapiens, UniProt O60603). Description: Agonist activity at human TLR2 expressed in HEK-Blue cells harboring NFkB promoter-driven secreted alkaline phosphatase assessed as induction of NFkB after 12 hrs by spectrophotometric assay.
Assay [2] addresses T1, Toll-like receptor 2. Description: Agonist activity at human TLR2 expressed in HEK cells assessed as induction of MCP1 by ELISA. (In an ELISA, binding on a coated surface is turned into a signal by an enzyme label.)
For assay [3], the target named is T1, Toll-like receptor 2. The experiment in a line: Agonist activity at human TLR2 expressed in HEK cells assessed as induction of MIP1beta level.
The target of assay [4] is T1, Toll-like receptor 2. The experiment in a line: Agonist activity at human TLR2 expressed in human THP1-Blue cells harboring NFkB promoter-driven secreted alkaline phosphatase assessed as induction of NFkB after 12 hrs co-treated with PAM2CSK4 by spectrophotometric assay.
The target in assay [5] is T1, Toll-like receptor 2. Description: Agonist activity at human TLR2 expressed in HEK cells assessed as induction of MIP1alpha level.

Calls of active or inactive are those of the source. The calls are words filed in the database; no cut-off is given here.

T1 sequence (O60603 whole entry): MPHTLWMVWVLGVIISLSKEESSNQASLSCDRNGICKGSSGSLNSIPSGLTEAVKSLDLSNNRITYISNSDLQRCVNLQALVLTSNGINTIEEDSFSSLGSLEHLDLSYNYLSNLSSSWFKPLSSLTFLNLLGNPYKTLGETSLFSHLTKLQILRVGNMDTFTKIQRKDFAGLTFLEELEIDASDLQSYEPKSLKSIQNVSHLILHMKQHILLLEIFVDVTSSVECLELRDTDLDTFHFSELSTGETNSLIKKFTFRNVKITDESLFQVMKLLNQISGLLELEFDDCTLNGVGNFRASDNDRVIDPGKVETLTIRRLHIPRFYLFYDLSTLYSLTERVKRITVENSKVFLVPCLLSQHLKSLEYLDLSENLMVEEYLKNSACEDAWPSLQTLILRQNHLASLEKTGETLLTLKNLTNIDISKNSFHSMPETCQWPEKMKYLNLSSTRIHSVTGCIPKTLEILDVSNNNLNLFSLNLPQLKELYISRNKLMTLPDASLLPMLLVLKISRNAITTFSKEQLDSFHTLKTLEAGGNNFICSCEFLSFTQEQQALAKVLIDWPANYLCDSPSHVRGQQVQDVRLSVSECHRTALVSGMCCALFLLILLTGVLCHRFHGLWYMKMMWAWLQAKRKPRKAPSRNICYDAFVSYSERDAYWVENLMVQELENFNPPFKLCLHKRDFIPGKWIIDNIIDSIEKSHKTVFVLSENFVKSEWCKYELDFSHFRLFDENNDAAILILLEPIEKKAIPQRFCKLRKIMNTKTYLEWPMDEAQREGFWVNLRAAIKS

On to `CC1CCc2cc(F)cc3c(O)c(C(=O)Nc4cccnc4)c(=O)n1c23` (configuration not stated), for which, on Toll-like receptor 2 [1], the outcome was inactive.

For the molecule `C[C@H]1CCc2cc(F)cc3c(O)c(C(=O)NCc4ccc(N)nc4)c(=O)n1c23`, the result at Toll-like receptor 2 [2], at Toll-like receptor 2 [3], at Toll-like receptor 2 [4], on Toll-like receptor 2 [1] and on Toll-like receptor 2 [5] was Active.

Consider `C[C@H]1CCc2cc(F)cc3c(O)c(C(=O)NCc4cncc(F)c4)c(=O)n1c23`, for which the outcome on Toll-like receptor 2 [2], on Toll-like receptor 2 [3], on Toll-like receptor 2 [4], on Toll-like receptor 2 [1] and on Toll-like receptor 2 [5] was Active.

For the molecule `CC1CCc2cc(F)cc3c(O)c(C(=O)NCc4cccc5[nH]ccc45)c(=O)n1c23` (configuration not stated), the outcome at Toll-like receptor 2 [1] was inactive.

As for `CC1CCc2cc(F)cc3c(O)c(C(=O)NCC4CCOC4)c(=O)n1c23` (configuration not stated), the outcome at Toll-like receptor 2 [1] was inactive.

On to `Cc1ccc(S(=O)(=O)N2CCC[C@H]2C(=O)N2c3ccc(F)cc3CC[C@H]2C)cc1`, for which the result on Toll-like receptor 2 [1] was Active.

In the case of `CC1CCc2cc(F)cc3c(O)c(C(=O)NCc4ccc5c(c4)OCCO5)c(=O)n1c23` (configuration not stated), at Toll-like receptor 2 [1], the outcome was inactive.

`CC1CCc2cc(F)cc3c(O)c(C(=O)NCc4ccc5c(c4)OCO5)c(=O)n1c23` (configuration not stated): the result on Toll-like receptor 2 [1] was inactive.

Regarding `CC1CCc2cc(F)cc3c(O)c(C(=O)NCc4ccccn4)c(=O)n1c23` (configuration not stated), the result at Toll-like receptor 2 [1] was inactive.

For the molecule `CC1CCc2cc(F)cc3c(O)c(C(=O)NCc4cccnn4)c(=O)n1c23` (configuration not stated), on Toll-like receptor 2 [1], the outcome was inactive.

Take `C[C@@H]1CCc2cc(F)cc3c(O)c(C(=O)NCc4cccnc4)c(=O)n1c23`: the result on Toll-like receptor 2 [1] was Active.

Take `CC1CCc2cc(F)cc3c(O)c(C(=O)NCC4CCCNC4)c(=O)n1c23` (configuration not stated): at Toll-like receptor 2 [1], the outcome was inactive.

`CC1CCc2cc(F)cc3c(O)c(C(=O)NCc4ccncc4)c(=O)n1c23` (configuration not stated): the result at Toll-like receptor 2 [1] was inactive.

Take `Cc1nn(C)cc1CNC(=O)c1c(O)c2cc(F)cc3c2n(c1=O)C(C)CC3` (configuration not stated): the outcome on Toll-like receptor 2 [1] was inactive.

On to `CC1CCc2cc(F)cc3c(O)c(C(=O)NCc4ccnn4C)c(=O)n1c23` (configuration not stated), for which the result on Toll-like receptor 2 [1] was inactive.

With `CC1CCc2cc(F)cc3c(O)c(C(=O)NCc4ccsc4)c(=O)n1c23` (configuration not stated), the outcome at Toll-like receptor 2 [1] was inactive.

As for `C[C@@H]1CCc2cc(F)ccc2N1`, the result on Toll-like receptor 2 [1] was Active.

In the case of `CC1CCc2cc(F)cc3c(O)c(C(=O)NCC4CCN(C)C4)c(=O)n1c23` (configuration not stated), the result at Toll-like receptor 2 [1] was inactive.

In the case of `C[C@@H]1CCc2cc(F)cc3c(O)c(C(=O)NCc4ccc(N)nc4)c(=O)n1c23`, on Toll-like receptor 2 [1], the outcome was Active.

Consider `Cc1nnc(CNC(=O)c2c(O)c3cc(F)cc4c3n(c2=O)C(C)CC4)o1` (configuration not stated), for which, at Toll-like receptor 2 [1], the outcome was inactive.

As to `Cc1ccncc1CNC(=O)c1c(O)c2cc(F)cc3c2n(c1=O)C(C)CC3` (configuration not stated), the EC50 (usually the concentration needed to bring the measured effect to its halfway point) at Toll-like receptor 2 [1] was determined as 1450 nM.

As for `CC1CCc2cc(F)cc3c(O)c(C(=O)NCc4cccc5ncccc45)c(=O)n1c23` (configuration not stated), the outcome at Toll-like receptor 2 [1] was inactive.

With `Cc1ccc(S(=O)(=O)N2CCC[C@H]2C(=O)N2c3ccc(F)cc3CC[C@@H]2C)cc1`, the outcome at Toll-like receptor 2 [1] was Active.

Regarding `CC1CCc2cc(F)cc3c(O)c(C(=O)NCc4ccc(N(C)C)nc4)c(=O)n1c23` (configuration not stated), the result at Toll-like receptor 2 [1] was inactive.

As for `CC1CCc2cc(F)cc3c(O)c(C(=O)NCc4cccs4)c(=O)n1c23` (configuration not stated), at Toll-like receptor 2 [1], the result was inactive.

Take `CC1CCc2cc(F)cc3c(O)c(C(=O)NCc4nc5ccccc5[nH]4)c(=O)n1c23` (configuration not stated): on Toll-like receptor 2 [1], the result was inactive.

Take `CC1CCc2cc(F)cc3c(O)c(C(=O)NCc4ccno4)c(=O)n1c23` (configuration not stated): the outcome at Toll-like receptor 2 [1] was inactive.

Consider `CC1CCc2cc(F)cc3c(O)c(C(=O)NCc4cnn(C)c4)c(=O)n1c23` (configuration not stated), for which the outcome on Toll-like receptor 2 [1] was inactive.

Turning to `CC1CCc2cc(F)cc3c(O)c(C(=O)NCc4ccc5[nH]ccc5c4)c(=O)n1c23` (configuration not stated), the result on Toll-like receptor 2 [1] was inactive.

With `CC1CCc2cc(F)cc3c(O)c(C(=O)NCc4ccc(Cl)nc4)c(=O)n1c23` (configuration not stated), on Toll-like receptor 2 [1], the EC50 was determined as 5000 nM.

Turning to `CC1CCc2cc(F)cc3c(O)c(C(=O)NCc4cccc(C(N)=O)c4)c(=O)n1c23` (configuration not stated), the outcome on Toll-like receptor 2 [1] was inactive.

With `CC1CCc2cc(F)cc3c(O)c(C(=O)NCc4cncc(F)c4)c(=O)n1c23` (configuration not stated), the EC50 at Toll-like receptor 2 [2] was 4.52 µM; at Toll-like receptor 2 [1] it was 1000 nM.

Take `CC1CCc2cc(F)cc3c(O)c(C(=O)NCc4ccnc5[nH]ccc45)c(=O)n1c23` (configuration not stated): the result at Toll-like receptor 2 [1] was inactive.

Turning to `CC1CCc2cc(F)cc3c(O)c(C(=O)NC4CCc5ncccc54)c(=O)n1c23` (configuration not stated), at Toll-like receptor 2 [1], the 50% effective concentration (EC50) is 3000 nM.

As to `CC1CCc2cc(F)cc3c(O)c(C(=O)NCC4CCCCN4)c(=O)n1c23` (configuration not stated), the outcome on Toll-like receptor 2 [1] was inactive.

As to `CC1CCc2cc(F)cc3c(O)c(C(=O)NCc4cncnc4)c(=O)n1c23` (configuration not stated), the outcome on Toll-like receptor 2 [1] was inactive.

Turning to `CC1CCc2cc(F)cc3c(O)c(C(=O)NCc4cccnc4)c(=O)n1c23` (configuration not stated), the figures for the EC50 at Toll-like receptor 2 [2] and on Toll-like receptor 2 [1] were 1.35 µM and 300 nM, respectively.

For the molecule `CC1CCc2cc(F)cc3c(O)c(C(=O)NCc4cnc5ccccc5c4)c(=O)n1c23` (configuration not stated), on Toll-like receptor 2 [1], the result was inactive.

In the case of `CC1CCc2cc(F)cc3c(O)c(C(=O)NCc4ccc(N)nc4)c(=O)n1c23` (configuration not stated), the EC50 at Toll-like receptor 2 [2] was 7.56 µM; at Toll-like receptor 2 [1], 320 nM.

Consider `CC1CCc2cc(F)cc3c(O)c(C(=O)NCc4nccn4C)c(=O)n1c23` (configuration not stated), for which, at Toll-like receptor 2 [1], the result was inactive.

On to `CC1CCc2cc(F)cc3c(O)c(C(=O)NCc4cccc5cc[nH]c45)c(=O)n1c23` (configuration not stated), for which the outcome on Toll-like receptor 2 [1] was inactive.

As to `CC1CCc2cc(F)cc3c(O)c(C(=O)NCc4n[nH]c5ccccc45)c(=O)n1c23` (configuration not stated), at Toll-like receptor 2 [1], the result was inactive.

For the molecule `CC1CCc2cc(F)cc3c(O)c(C(=O)NCc4nc5ccccc5n4C)c(=O)n1c23` (configuration not stated), the outcome on Toll-like receptor 2 [1] was inactive.

With `CC1CCc2cc(F)cc3c(O)c(C(=O)NCC4CNCCO4)c(=O)n1c23` (configuration not stated), the result on Toll-like receptor 2 [1] was inactive.

Consider `CC1CCc2cc(F)cc3c(O)c(C(=O)NCC4CCCN(C)C4)c(=O)n1c23` (configuration not stated), for which the outcome on Toll-like receptor 2 [1] was inactive.

For `C[C@H]1CCc2cc(F)cc3c(O)c(C(=O)NCc4cccnc4)c(=O)n1c23`, the result on Toll-like receptor 2 [2], at Toll-like receptor 2 [3], at Toll-like receptor 2 [4], at Toll-like receptor 2 [1] and on Toll-like receptor 2 [5] was Active.

Regarding `Cc1cc(CNC(=O)c2c(O)c3cc(F)cc4c3n(c2=O)C(C)CC4)no1` (configuration not stated), the outcome at Toll-like receptor 2 [1] was inactive.

For `COc1cc(CNC(=O)c2c(O)c3cc(F)cc4c3n(c2=O)C(C)CC4)ccn1` (configuration not stated), the outcome at Toll-like receptor 2 [1] was inactive.

Regarding `CC1CCc2cc(F)cc3c(O)c(C(=O)NCC4CCNCC4)c(=O)n1c23` (configuration not stated), at Toll-like receptor 2 [1], the result was inactive.

As for `CC1CCc2cc(F)cc3c(O)c(C(=O)NCc4cc5ccccc5[nH]4)c(=O)n1c23` (configuration not stated), the result on Toll-like receptor 2 [1] was inactive.

`CC1CCc2cc(F)cc3c(O)c(C(=O)NCCc4cccnc4)c(=O)n1c23` (configuration not stated): the 50% effective concentration (EC50) amounted to 1.86 µM on Toll-like receptor 2 [2] and 1350 nM at Toll-like receptor 2 [1].

As to `CC1CCc2cc(F)cc3c(O)c(C(=O)NCc4cccnc4N(C)C)c(=O)n1c23` (configuration not stated), the EC50 came out at 3.09 µM at Toll-like receptor 2 [2] and 3200 nM on Toll-like receptor 2 [1].

For `CC1CCc2cc(F)cc3c(O)c(C(=O)NCc4ccnnc4)c(=O)n1c23` (configuration not stated), on Toll-like receptor 2 [1], the result was inactive.

Take `CC1CCc2cc(F)cc3c(O)c(C(=O)NCCn4ccnc4)c(=O)n1c23` (configuration not stated): at Toll-like receptor 2 [1], the result was inactive.

`C[C@H]1CCc2cc(F)ccc2N1`: the result at Toll-like receptor 2 [1] was Active.

(Values after ChEMBL document CHEMBL4308923, “Identification of Human Toll-like Receptor 2-Agonistic Activity in Dihydropyridine-Quinolone Carboxamides” (ACS Med Chem Lett, 2019).)
